# Source: patent US20150328191A1, “USE OF PIDOTIMOD TO TREAT PSORIASIS” (POLICHEM S.A., priority 2012, published 2015)
# Peptide text beside a SMILES is read from it.
# System: psoriatic patients (mild psoriasis)
# Assay: Evaluation of pidotimod in psoriatic patients by PASI evaluation; safety also evaluated
# Type: in vivo, human
# Conditions: 800 mg daily oral, 12 weeks
# Protocol: An evaluation of the activity of pidotimod was tested on psoriatic patients, in order to assess the efficacy in terms of improvement of the pathology by means of PASI evaluation. The safety of the treatment was also evaluated. The study was performed in 5 patients (3 males and 2 females, aged between 31-53, mean=42) with a clinical diagnosis of mild psoriasis of at least 6 months. […] The body surface area involvement at the baseline was ≦10% with a PASI value ≦10.
# The study product was taken with the composition of the Example 6 at a dosage of two oral vials daily, i.e. 800 mg daily of the active ingredient, taken far from mealtimes.
# During the trial, the following visits were performed: • baseline—T0 (before the product use) • intermediate visit—T6 (after 6 weeks of treatment) • final visit—T12 (after 12 weeks of treatment)
# No relevant event, which may have interfered to the test results, occurred during the study period.
# The efficacy of the product was expressed by mean of values of PASI evaluation, assessing the PASI at the baseline and at the intermediate visit and the final one.
compound,measurement,setting,value
"O=C1CC[C@@H](C(=O)N2CSC[C@H]2C(=O)O)N1 [pidotimod, (4R)-3-(5-oxo-L-prolyl)-1,3-thiazolidine-4-carboxylic acid] (HELM PEPTIDE1{[Glp].[O=C(O)[C@@H]1CSCN1[*:1]]}$$$$V2.0)",Side effects,5 patients,no side effects were reported
same,Tolerability of the treatment,5 patients,very well tolerated
same,Student t test p for decrease of the PASI value at T12 (end of treatment) vs. T0 (baseline),"5 patients, statistically significant decrease",< 0.05
same,Improvement in the clinical evidences of the illness,all 5 patients,important improvement
